Measured values: publication PMC10901819, “Structure-function analysis of the cyclic β-1,2-glucan synthase from Agrobacterium tumefaciens” (Nature Communications, 2024)

Molecular target: T1, Cgs (CgsWT) (Agrobacterium fabrum, UniProt Q7CWD9)
T1 construct: gene chvB; full length, C-terminal 3xFlag from chromosomal insertion; purified from native A. tumefaciens C58 membranes in DDM; nanodiscs (cryo-EM) or proteoliposomes (activity); subpopulation of dimers
Assay: cryo-EM structure
Format: binding
Settings: GT active site; sample incubated with 5 mM UDP-Glc, 1.5 mM MgCl2, pH 7.5, 22 °C; putative UDP density

O=c1ccn([C@@H]2O[C@H](COP(=O)(O)OP(=O)(O)O)[C@@H](O)[C@H]2O)c(=O)[nH]1 [UDP]
cryo-EM structure: The CgsWT model contains an additional density docked at the active site
